Format in all cases: cell-based, human
Test [1] concerns OVCAR3 ovarian cancer cells. The test can be described thus: NK cell CD107a / IFNγ flow cytometry against OVCAR3. The note with it: 30 nM, E:T 2:1, 4 hrs; vs no treatment and rhIL-15 alone. The procedure:
(§1) Healthy donor or ovarian cancer PBMC cells were incubated with ovarian tumor targets at 2:1 E:T ratio for 4 hrs with 30 nM TriKE or control condition. FIG. 30A is a graph illustrating pooled proportion of NK cells from healthy donors expressing CD107a+ (degranulation) against OVCAR8 targets (N=8). FIG. 30B is a graph illustrating pooled proportion of NK cells from healthy donors expressing IFNγ cytokine production against OVCAR8 targets (N=8). FIG. 30C is a graph illustrating pooled proportion of NK cells from healthy donors expressing CD107a+ (degranulation) against OVCAR3 targets (N=4). […] FIG. 30I is a graph illustrating that tumor killing was evaluated using IncuCyte imaging assay. […] The percentage of Live (Nuclight Red+Caspase 3/7−) tumor cells was quantified over a 48-h period and normalized to tumor alone. Readings were obtained every 15 min (representative of four separate experiments). * p<0.05, ** p<0.01, *** p<0.001, and **** p<0.0001.
(§2) ADCC was measured in a flow cytometry assay by evaluating degranulation via CD107a (lysosomal-associated membrane protein LAMP-1) and intracellular IFNγ production. […] Samples were washed and evaluated in an LSRII flow cytometer (BD Biosciences, San Jose, CA, USA).
(§3) The ability of cam1615B7-H3 TriKE to mediate NK cell activity against ovarian cancer cells was evaluated. […]

Test [2] relates to OVCAR5 ovarian cancer cells. The experiment in a line: NK cell CD107a / IFNγ flow cytometry against OVCAR5. The note with it: 30 nM, E:T 2:1, 4 hrs; vs no treatment and rhIL-15 alone. The procedure: as §1, §2, §3
(In general: A flow cytometer gives signals particle by particle.)

In test [3] the test system is HNSCC cells (Cal27, Cal33). The experiment in a line: IncuCyte 2D and 3D spheroid killing of HNSCC. As to conditions: 2D and 3D IncuCyte; E:T 5:1, 3 nM; irrespective of FANCA gene; vs B7-H3 single domain or IL-15 alone. The procedure: FIGS. 28A-28F illustrate real-time imaging assays. FIG. 28A is a graph showing Nuclight red-labeled Cal27 survival after incubation with NK cells at an E:T of 5:1 in different conditions: no treatment or 3 nM IL-15, B7-H3 SD and B7-H3 TriKE for 48 hours in an IncuCyte Zoom imager. […] FIG. 28C is a graph illustrating the size of the spheroid in FIG. 28B. FIG. 28D is a graph showing Nuclight red-labeled Cal33 survival after incubation with NK cells at an E:T of 5:1 in different conditions: no treatment or 3 nM IL-15, B7-H3 SD and B7-H3 TriKE for 48 hours in an IncuCyte Zoom imager. […] FIG. 28F is a graph illustrating the size of the spheroid in FIG. 28E.
NK cell responses against HNSCC lines in the presence of the B7-H3 TriKE were assessed through either flow cytometry based functional assays, to evaluate NK cell degranulation and cytokine secretion, or IncuCyte imaging assays, to directly assess target killing. […]
Enriched NK cells (N=4) were incubated with Nuclight red-labeled Cal27 at an E:T of 5:1 in different conditions: no treatment or 3 nM IL-15, B7-H3 SD and B7-H3 TriKE for 48 hours in an IncuCyte Zoom imager. Quantifications of percent live cells were done by normalizing hourly counts of red cells to targets alone at t=0. […] Quantifications of percent average red object area (live cells) were done by normalizing hourly counts of average red object area to targets alone at t=0. […]

“Also recorded” adds a separate entry of the source.

Turning to “cam1615B7-H3: second-generation TriKE: humanized camelid anti-CD16 VHH, human wild-type IL-15, anti-B7-H3 mAb 376.96 scFv; SEQ ID NO:1”, in test [1], the “NK cell degranulation against OVCAR3” value is on record as “robust” and the “NK cell intracellular IFNγ production against OVCAR3” value was “robust”. Further, in test [2], the “NK cell degranulation against OVCAR5” value is given as “robust” and the “NK cell intracellular IFNγ production against OVCAR5” value is “robust”.

With “B7-H3 TriKE: camelid nanobodies targeting CD16 and B7-H3 joined by IL-15 and two linkers; sequence table equates the name with cam1615B7-H3”, the “HNSCC target cell killing by NK cells” value in test [3] is given as “more HNSCC target cell killing; also recorded: induced NK cell killing against HNSCC”.

(Values after US20250145715A1, “B7-H3 TARGETING FUSION PROTEINS AND METHODS OF USE THEREOF” (GT Biopharma, Inc., priority 2021, published 2025).)
